Measurements as given in patent EP0249194A2, “Topical prostaglandin formulations” (AMERICAN CYANAMID COMPANY, priority 1986, dated 1987).
Like-named read-outs stand apart in the source and are kept apart here.

What was measured:
[1] = Stability of viprostol compositions on storage in glass (ampules); type: physicochemical
[2] = test system: male pattern baldness; test: Clinical study of hair growth after once-daily topical application to the scalp, hair counts; type: in vivo, healthy, male volunteers; settings: topical application of small amounts; mean hair counts over a six-month period (Figs. 1-5) and three-month chart
Procedure: Clinical studies using healthy, male volunteers (age 18-65) with vertex baldness and some recession of front hairline were performed using viprostol in Formulation A, above-described. The volunteers were not hypertensive. […] The hairs on such location were counted at the beginning of the study, and recounts were done periodically during the course of the study. All hair, including unpigmented vellus and pigmented intermediate and terminal hair was, counted, except as indicated hereinbelow. The amount of viprostol applied was approximately 120 mcg, which amount was applied once daily to the bald and balding areas of the scalp. The viprostol was contained in the above-described Formulation A. Approximately 0.3 ml of such formulation was topically to the scalp with an index finger and rubbing action. The scalp was clean (recently shampooed) and dry at application. The chart below summarizes the results after three months of study.
Additionally, as the study proceeded beyond three months, the results wre charted as mean hair counts over time.

Stability of Viprostol Compositions (% of Initial Potency) ([1]; Initial): 100%
remaining at 1440 h ([1]; neat bulk liquid, 23°C 2 months, read-out: Stability of Viprostol Compositions (% of Initial Potency)): 99%
remaining at 4320 h ([1]; neat bulk liquid, 23°C 6 months, read-out: Stability of Viprostol Compositions (% of Initial Potency)): 87%
remaining at 8760 h ([1]; neat bulk liquid, 23°C 12 months, read-out: Stability of Viprostol Compositions (% of Initial Potency)): 20%
remaining at 13152 h ([1]; neat bulk liquid, 23°C 18 months, read-out: Stability of Viprostol Compositions (% of Initial Potency)): 12%
remaining at 1440 h ([1]; neat bulk liquid, 42°C 2 months, read-out: Stability of Viprostol Compositions (% of Initial Potency)): 83%
remaining at 720 h ([1]; neat bulk liquid, 56°C 1 month, read-out: Stability of Viprostol Compositions (% of Initial Potency)): 32%
remaining at 1440 h ([1]; neat bulk liquid, 56°C 2 months, read-out: Stability of Viprostol Compositions (% of Initial Potency)): 0%
SMILES: C=CC(O)(CC=CC1C(O)CC(=O)C1CC=CCCCC(=O)OC)CCCC (racemic) [viprostol, Methyl (±)-[11α,5Z(5E), 13E, 16R and 16S]-16 ethenyl-11,16-dihydroxy-9-oxoprosta-5,13-dien-1-oate]
hair growth [2]: caused hair growth
